{
  "source": "patent US5444089A",
  "about": "“Neutral lipids from endosperm of Job's tears” (Li; Da P., priority 1992, dated 1995)",
  "key": {"sarcoma (S-180)": {"system": "sarcoma (S-180)", "assay": "Anti-tumor effect on sarcoma (S-180) in vivo", "set-up": "species or system mice", "experimental": "Sarcoma (S-180) tissues growing luxuriantly were prepared to be a cell suspension with physical saline 1:3(w/v). Mice were divided into groups at random the next day and were administered with doses of NLEJ emulsion of 25 ml/kg iv×7 (qd), doses of cyclophosphamide of 30 mg/kg ip×2 (second and fourth), doses of mitoxantrone (DHAD) of 2 mg/kg ip×2 (second and fourth), and doses of mitomycin of 1.5 mg/kg ip×2 (second and fourth). Tumor tissues from all treatments were sampled and weighed to calculate tumor inhibition ratios 14 days after inoculating."}, "leukocyte [1]": {"system": "leukocyte", "assay": "Protection on decrease of leukocyte induced by harringtonine chemotherapy", "assay_type": "in vivo, Swiss mice", "settings": "HRTN 1 mg/kg ip × 1, 5, 9", "experimental": "(§1) 80 Swiss mice were divided into eight groups at random, were administered with cyclophosphamide at 45 mg/kg ip×3 (second, sixth and tenth), or harringtonine (HRTN) at 1 mg/kg ip×3 (second, sixth and tenth). To each of two of the medicine groups were administered NLEJ emulsion at the same time, at doses of 2.4 ml/kg and 6.25 ml/kg iv×7 (every day). At the beginning and on the fourth day of each administration, blood was sampled from the angle of each mouse's eye, and leukocytes of the blood were counted."}, "[2]": {"system": "Walaer carcinosarcoma (solid) W256", "assay": "Anti-tumor effect on Walaer carcinosarcoma (solid) W256 in vivo", "set-up": "species or system rat", "experimental": "Ascites Walaer carcinosarcoma (solid) W256 tissues growing luxuriantly were digested to be a cell suspension. The cell suspension was regulated to have a 1-2×10^7 /ml cell density. 0.2 ml of the suspension was inoculated under the skin of armpit of each rat. The rats were divided into groups at random the next day and were administered with doses of NLEJ emulsion of 20 ml/kg, 10 ml/kg, 5 ml/kg iv×10 (qd), and doses of […], the doses of cyclophosphamide were 30 mg/kg iv×7 (qd), mg/kg iv×2 (third and fifth). Tumor tissues from all treatments were sampled and weighed to calculate tumor inhibition ratios 14 days after inoculating."}, "melanoma (B16)": {"system": "melanoma (B16)", "assay": "Metastasis of melanoma (B16) in lung in vivo", "set-up": "species or system C57BL/6 mouse", "settings": "100 mg/kg ip × 2 (3, 5)", "experimental": "Melanoma B16 tissues growing at logarithmic stage were digested with 0.15% trypsin, and 0.2 ml suspension of 2.5×10^5 cells/ml in RPMI 1640 medium from the tissues was inoculated intravenously into the tail of each C57BL/6 mouse. Mice were divided into groups at random 3 days after inoculating and were administered different emulsions. Mice were killed 21 days after inoculating, and metastasized colonies of melanoma in mouse's lung were counted to calculate the inhibition ratio and compare the different effects of different administrations of NLEJ emulsion on metastasis of malanoma in lung. 100 mg/kg cyclophosphamide (CTX) was administered in the same way to compare with NLEJ emulsion."}, "human hepatoma (QGY)": {"system": "human hepatoma (QGY)", "assay": "Growth of human hepatoma (QGY) in nude mice", "assay_type": "in vivo, human (nude mouse)", "settings": "30 mg/kg ip daily 7 days", "experimental": "Hepatoma (QGY) tissues growing luxuriantly were homogenized in physical saline (1:4) and prepared as a suspension. Each nude mouse was inoculated subcutaneously with 0.2 ml of the suspension at its armpit. The nude mice were divided into groups at random the next day. The doses of NLEJ emulsion were 25 ml/kg, 12.5 ml/kg and 6.25 ml/kg. The emulsion was administrated intravenously at the tail of the nude mouse every day for 10 days. One group of mice were administered with cyclophosphamide (CTX) of a dose of 30 mg/kg intraperitoneally every day for 7 days. The nude mice of the control group were administered with a similar emulsion just absent the NLEJ (blank emulsion) at a dose of 25 ml/kg intravenously at the tail of the nude mouse every day for 10 days. Tumor tissues of all nude mice were sampled and weighed 30 days after inoculating."}, "leukocyte [3]": {"system": "leukocyte", "assay": "Protection on decrease of leukocyte induced by cyclophosphamide chemotherapy", "assay_type": "in vivo, Swiss mice", "settings": "CTX 45 mg/kg ip × 1, 5, 9", "experimental": "as §1"}, "[4]": {"system": "human small cell lung cancer (SPC)", "assay": "Growth of human small cell lung cancer (SPC) in nude mice", "assay_type": "in vivo, human (nude mouse)", "settings": "40 mg/kg iv×10 (qd)", "experimental": "SPC tumor tissues growing luxuriantly were cut into pieces of 2 mm, one of the pieces was inoculated under the skin of the armpit of each nude mouse. Nude mice were divided into groups at random the next day and one group was administered with the NLEJ emulsion at a dose of 25 ml/kg iv×10 (qd), one group of mice was administered with dacarbazine (DTIC) at a dose of 40 mg/kg iv×10 (qd), and the nude mice of the control group were administered with blank emulsion at a dose of 25 ml/kg iv×10 (qd). Tumor tissues of all nude mice were sampled and weighed 30 days after inoculating."}, "[5]": {"system": "mouse Ehrlich ascites tumor", "settings": "cited from earlier work"}},
  "data": [
    {"smiles": "O=C1c2c(O)ccc(O)c2C(=O)c2c(NCCNCCO)ccc(NCCNCCO)c21", "note": "[DHAD, mitoxantrone]", "values": [
      {"measurement": "Inhibition (%)", "setting": "sarcoma (S-180); 2 mg/kg ip × 2 (1, 3)", "value": 50, "unit": "%"}
    ]},
    {"smiles": "COC(=O)C[C@](O)(CCC(C)(C)O)C(=O)O[C@@H]1C(OC)=C[C@]23CCCN2CCc2cc4c(cc2[C@H]13)OCO4", "note": "[HRTN, harringtonine]", "values": [
      {"measurement": "Leucocyte number", "setting": "leukocyte [1]; time 0", "value": "60 × 100/mm^3"},
      {"measurement": "Leucocyte number", "setting": "leukocyte [1]; time 3", "value": "75 × 100/mm^3"},
      {"measurement": "Leucocyte number", "setting": "leukocyte [1]; time 6", "value": "65 × 100/mm^3"},
      {"measurement": "Leucocyte number", "setting": "leukocyte [1]; time 9", "value": "50 × 100/mm^3"},
      {"measurement": "Leucocyte number", "setting": "leukocyte [1]; time 12", "value": "44 × 100/mm^3"},
      {"measurement": "Leucocyte number", "setting": "leukocyte [1]; time 15", "value": "43 × 100/mm^3"},
      {"measurement": "Leucocyte number", "setting": "leukocyte [1]; time 18", "value": "49 × 100/mm^3"},
      {"measurement": "Leucocyte number", "setting": "leukocyte [1]; time 21", "value": "53 × 100/mm^3"},
      {"measurement": "Leucocyte number", "setting": "leukocyte [1]; time 24", "value": "56 × 100/mm^3"}
    ]},
    {"smiles": "O=P1(N(CCCl)CCCl)NCCCO1", "note": "(stereo not shown) [CTX, cyclophosphamide]", "values": [
      {"measurement": "Inhibition (%)", "setting": "sarcoma (S-180); 30 mg/kg ip × 2 (1, 3)", "value": 39.4, "unit": "%"},
      {"measurement": "Inhibition (%)", "setting": "[2]; 10 mg iv × 2", "value": 38.58, "unit": "%"},
      {"measurement": "Weight (tumor)", "setting": "[2]; 10 mg iv × 2", "value": "2.07 ± 1.11", "unit": "g"},
      {"measurement": "Inhibition (%)", "setting": "[2]; 30 mg iv × 7", "value": 88.13, "unit": "%"},
      {"measurement": "Weight (tumor)", "setting": "[2]; 30 mg iv × 7", "value": "0.4 ± 0.15", "unit": "g"},
      {"measurement": "Colony No.", "setting": "melanoma (B16); Table 4", "value": "18.80 ± 8.50"},
      {"measurement": "Inhibition (%)", "setting": "melanoma (B16); Table 4", "value": 95.90, "unit": "%"},
      {"measurement": "Colony No.", "setting": "melanoma (B16); Table 5", "value": "8.0 ± 6.22"},
      {"measurement": "Inhibition (%)", "setting": "melanoma (B16); Table 5", "value": 98.67, "unit": "%"},
      {"measurement": "Colony No.", "setting": "melanoma (B16); Table 6", "value": 0},
      {"measurement": "Inhibition (%)", "setting": "melanoma (B16); Table 6", "value": 100, "unit": "%"},
      {"measurement": "Inhibition (%)", "setting": "human hepatoma (QGY)", "value": 91.00, "unit": "%"},
      {"measurement": "Tumor", "setting": "human hepatoma (QGY)", "value": "0.28 ± 0.08", "unit": "g"},
      {"measurement": "Leucocyte number", "setting": "leukocyte [3]; time 0", "value": "62 × 100/mm^3"},
      {"measurement": "Leucocyte number", "setting": "leukocyte [3]; time 3", "value": "49 × 100/mm^3"},
      {"measurement": "Leucocyte number", "setting": "leukocyte [3]; time 6", "value": "45 × 100/mm^3"},
      {"measurement": "Leucocyte number", "setting": "leukocyte [3]; time 9", "value": "41 × 100/mm^3"},
      {"measurement": "Leucocyte number", "setting": "leukocyte [3]; time 12", "value": "41 × 100/mm^3"},
      {"measurement": "Leucocyte number", "setting": "leukocyte [3]; time 15", "value": "42 × 100/mm^3"},
      {"measurement": "Leucocyte number", "setting": "leukocyte [3]; time 18", "value": "45 × 100/mm^3"},
      {"measurement": "Leucocyte number", "setting": "leukocyte [3]; time 21", "value": "47 × 100/mm^3"},
      {"measurement": "Leucocyte number", "setting": "leukocyte [3]; time 24", "value": "49 × 100/mm^3"}
    ]},
    {"smiles": "CN(C)/N=N/c1[nH]cnc1C(N)=O", "note": "[DTIC, dacarbazine]", "values": [
      {"measurement": "Inhibition (%)", "setting": "[4]", "value": 94.94, "unit": "%"},
      {"measurement": "Tumor", "setting": "[4]", "value": "0.18 ± 0.04"}
    ]},
    {"smiles": "CO[C@@]12[C@H](COC(N)=O)C3=C(C(=O)C(C)=C(N)C3=O)N1C[C@@H]1N[C@@H]12", "note": "[Mitomycin, mitomycin]", "values": [
      {"measurement": "Inhibition (%)", "setting": "sarcoma (S-180); 1.5 mg/kg ip × 2 (1, 3)", "value": 39.4, "unit": "%"}
    ]},
    {"smiles": "CCCCCC/C=C\\CCCCCCCC(=O)O[C@H](C)[C@H](C)OC(=O)CCCCCCCCC/C=C/CCCCCC", "note": "[coixenolide]", "values": [
      {"measurement": "Growth of mouse Ehrlich ascites tumor", "setting": "[5]; Ukita 1961", "value": "inhibit the growth"},
      {"measurement": "Anti-tumor activity", "setting": "[5]; pure compound", "value": "strong anti-tumor activity"}
    ]}
  ]
}
